Measured values reported in EPA's ToxValDB 9.5.

Experiments:
Rattus norvegicus [1] = tested on: Rattus norvegicus
Rattus norvegicus [2] = settings: oral
[3] = short-term, duration: 4 weeks, oral, gavage, F, Sprague-Dawley
[4] = short-term, duration: 4 weeks, oral, gavage, M, Sprague-Dawley
[5] = short-term, duration: 28 days, gavage, M, Sprague-Dawley, Clinical Observation: Salivation Spontaneous locomotion decrease, Respiratory rate decrease
[6] = short-term, duration: 28 days, gavage, M, Sprague-Dawley, Clinical Observation: Locomotor activity decrease, Staining around nose and mouth Salivation + Functional Observational Battery: Motor …
[7] = short-term, duration: 28 days, gavage, F, Sprague-Dawley, Clinical Observation: Salivation Soft feces Diarrhea Soiled perigenital fur + Body Weight Changes: decrease, Gain decrease + Urinalysis: pH …
[8] = short-term, duration: 28 days, gavage, M, Sprague-Dawley, Clinical Observation: Salivation Soft feces Diarrhea Soiled perigenital fur + Body Weight Changes: decrease, Gain decrease + Urinalysis: pH …
[9] = short-term, duration: 28 days, gavage, F, Sprague-Dawley, Clinical Observation: Soft stool + Body Weight Changes: decrease, Gain decrease + Urinalysis: Protein increasep H decrease + Blood Chemistry…
[10] = short-term, duration: 28 days, gavage, M, Sprague-Dawley, Clinical Observation: Soft stool + Body Weight Changes: decrease, Gain decrease + Urinalysis: Protein increasep H decrease + Blood Chemistry…
[11] = subchronic, gavage, M, Sprague-Dawley, Clinical Observation: Salivation Locomotor activity decrease, BradypneaIncomplete eyelid opening + Body Weight Changes: decrease + Blood …

CCCCCCCCCCCCCCCCCC(=O)[O-].CCCCCCCCCCCCCCCCCC(=O)[O-].[Ca+2] [Calcium stearate]
NOAEL (Rattus norvegicus [1]; subchronic, duration: 13 weeks, dermal, non-occlusive, F, Sprague-Dawley): 2000 mg/kg-day
NOAEL (Rattus norvegicus [1]; subchronic, duration: 13 weeks, dermal, non-occlusive, M, Sprague-Dawley): 2000 mg/kg-day
NOAEL (Rattus norvegicus [2]; short-term, duration: 28 days, gavage, M, Sprague-Dawley, Urinalysis: Bilirubin increase + Absolute Organ Weight: Spleen increase): 2000 mg/kg-day

C=C(C)C [Isobutene]
NOAEL (Rattus norvegicus [1]; reproduction developmental, duration: 17 days, inhalation, F, Wistar): 18400 mg/m3
LOAEL (Rattus norvegicus [1]; [3]): 149 mg/kg-day
NOAEL (Rattus norvegicus [1]; [3]): 14.9 mg/kg-day
LOAEL (Rattus norvegicus [1]; [4]): 149 mg/kg-day
NOAEL (Rattus norvegicus [1]; [4]): 14.9 mg/kg-day
NOAEL (Rattus norvegicus [1]; subchronic, duration: 13 weeks, inhalation, F, Sprague-Dawley): 18400 mg/m3
NOAEL (Rattus norvegicus [1]; subchronic, duration: 13 weeks, inhalation, M, Sprague-Dawley): 18400 mg/m3
NOAEL (Rattus norvegicus [2]; short-term, duration: 28 days, gavage, Sprague-Dawley): 149 mg/kg-day

O=C(O)c1cccc([N+](=O)[O-])c1 [3-Nitrobenzoic acid]
NOEL (Rattus norvegicus [2]; subchronic, gavage, M, Sprague-Dawley, Body Weight Changes: decrease + Hematology: RBC decrease + Blood Chemistry: TP decrease, A/G increase, Pi increase, K increase, Cl decrease…): 20 mg/kg-day

O=P(OCCCl)(OCCCl)OCCCl [Tris(2-chloroethyl) phosphate]
NOAEL (Rattus norvegicus [2]; [5]): 400 mg/kg-day
NOEL (Rattus norvegicus [2]; [5]): 80 mg/kg-day

C=CC(C)(O)CCC=C(C)C (stereo not drawn) [Linalool]
NOAEL (Rattus norvegicus [2]; short-term, duration: 28 days, gavage, M/F, CD/BR, Deaths + Blood Chemistry: TP increase, Alb increase, Ca increase, Glu decrease + Absolute Organ Weight: Liver increase, Kidney increase + …): 160 mg/kg-day

CCc1ncnc(Cl)c1Cl [4,5-DICHLORO-6-ETHYLPYRIMIDINE]
NOEL (Rattus norvegicus [2]; short-term, duration: 28 days, gavage, M/F, Deaths + Clinical Observation: Salivation Locomotor activity decrease, Ptosis + Body Weight Changes: Weight gain decrease + Food Consumption…): 5 mg/kg-day

Nc1ccc([N+](=O)[O-])cc1Cl [2-Chloro-4-nitroaniline]
NOEL (Rattus norvegicus [2]; subchronic, gavage, Sprague-Dawley): 100 mg/kg-day

CCCCCCCCCCCCC(CO)CCCCCCCCCC (stereo not drawn) [1-Tetradecanol, 2-decyl-]
NOAEL (Rattus norvegicus [2]; subchronic, gavage, M, Sprague-Dawley, Urinalysis: Occult blood + Hematology: PT increase, APTT increase + Blood Chemistry: LDH increase): 62.5 mg/kg-day

COc1cc(S(=O)(=O)CCOS(=O)(=O)O)c(OC)cc1N
NOEL (Rattus norvegicus [2]; short-term, duration: 28 days, gavage, F, Blood Chemistry: Na increase + Relative Organ Weight: Liver increase, Kidney increase): 30 mg/kg-day

COC(=O)CCS [Methyl 3-mercaptopropionate]
NOAEL (Rattus norvegicus [2]; subchronic, gavage, M, Wistar, Clinical Observation: Pushed their heads through the bedding + Relative Organ Weight: Liver increase + Histopathology: Stomach: Hyperplasia…): 100 mg/kg-day

O=NN1CN2CN(C1)CN(N=O)C2 [N,N-Dinitrosopentamethylenetetramine]
NOAEL (Rattus norvegicus [2]; [6]): < 40 mg/kg-day
NOEL (Rattus norvegicus [2]; [6]): < 40 mg/kg-day

C=C1C/C(=C/C)C(=O)O[C@@H]2CCN3CC=C(COC(=O)[C@@]1(O)CO)[C@H]23 [Riddelliine]
NOEL (Rattus norvegicus [2]; subchronic, gavage, M/F, Fischer 344, Deaths + Body Weight Changes: decrease + Hematology: Ret increase Hct increase Hgb increase RBC increase Plt decrease, WBC increase Lymph …): < 0.1 mg/kg-day

CC(C)c1cccc2ccccc12 [Isopropylnaphthalene]
LOEL (Rattus norvegicus [2]; [7]): 250 mg/kg-day
NOEL (Rattus norvegicus [2]; [7]): 50 mg/kg-day
LOEL (Rattus norvegicus [2]; [8]): 250 mg/kg-day
NOEL (Rattus norvegicus [2]; [8]): 50 mg/kg-day

ClCCc1ccccc1 [1-Chloro-2-phenylethane]
NOEL (Rattus norvegicus [2]; short-term, duration: 28 days, gavage, M/F, Sprague-Dawley, Food Consumption: decrease + Urinalysis: Volume increase, Prot decrease + Hematology: RBC increase, MCV decrease, MCH decrease + Absolute …): 60 mg/kg-day

C1=CCCC=CCCC=CCC1 [1,5,9-Cyclododecatriene]
NOEL (Rattus norvegicus [2]; subchronic, duration: 42 days, gavage, M, CD(SD), Clinical Observation: Salivation + Body Weight Changes: Weight gain decrease + Hematology: PT increase, APTT increase, Fibrinogen increase…): 12 mg/kg-day
NOAEL (Rattus norvegicus [2]; subchronic, duration: 55 days, gavage, M, Sprague-Dawley, Body Weight Changes: Weight gain decrease + Food Consumption: increase + Urinalysis: Vol increase + Blood Chemistry: TG decrease + Absolute …): 30 mg/kg-day

CN1CCNCC1 [1-Methylpiperazine]
NOEL (Rattus norvegicus [2]; subchronic, gavage, M, Sprague-Dawley, Body Weight Changes: Gain decrease(trend)Gain rate decrease + Hematology: WBC decrease(trend)RET decrease, Eosinophil ratio decrease + Blood…): 80 mg/kg-day

COc1ccc(OC)c(N)c1 [Benzenamine, 2,5-dimethoxy-]
NOEL (Rattus norvegicus [2]; short-term, duration: 28 days, gavage, M/F, Clinical Observation: Salivation + Body Weight Changes: Weight gain decrease + Food Consumption: decrease + Hematology: HGB decrease, RET …): 1 mg/kg-day

C/C=C/C=C/C=O [(2E,4E)-2,4-Hexadienal]
NOEL (Rattus norvegicus [2]; chronic, duration: 14 weeks, gavage, M/F, Fischer 344, Clinical Observation: Hypersalivation + Body Weight Changes: decrease + Histopathology: Stomach/forestomach-Epithelium hyperplasia Stomach/…): 15 mg/kg-day

COc1cc(N=Nc2ccc3cc(S(=O)(=O)[O-])c(N=Nc4cc(OC)c(N=Nc5ccc(N)cc5S(=O)(=O)[O-])cc4OC)c(O)c3c2)c(OC)cc1N.[Na+].[Na+]
NOEL (Rattus norvegicus [2]; short-term, duration: 28 days, gavage, M/F, Body Weight Changes: Body weight gain decrease + Food Consumption: decrease + Hematology: GOT increase, GPT increase, TG decrease + Organ …): 2 mg/kg-day

C=CN1CCCC1=O [Vinylpyrrolidone]
NOAEL (Rattus norvegicus [2]; subchronic, duration: 90 days, drinking water, M/F, Wistar, Water Consumption: decrease + Blood Chemistry: TP decrease, Glob decrease, Alb decrease + Absolute Organ Weight: Kidney increase): 4.56 mg/kg-day
NOAEL (Rattus norvegicus [2]; subchronic, duration: 90 days, gavage, M/F, Wistar, Food Consumption: decrease + Water Consumption: increase + Hematology: PLT increase + Absolute Organ Weight: Liver increase + Histopathology…): 60 mg/kg-day

CC(=O)Nc1ccccc1 [N-Acetylaminobenzene]
NOAEL (Rattus norvegicus [2]; subchronic, duration: 30 days, gavage, M, Sprague-Dawley, Clinical Observation: Decreased locomotor activity Reddish Tear SalivationCyanosis + Hematology: HGB decrease, HCT decrease, MCHC decrease…): < 22 mg/kg-day

O=C/C=C/c1ccccc1 [(2E)-3-Phenylprop-2-enal]
NOEL (Rattus norvegicus [2]; chronic, duration: 14 weeks, diet, F, Fischer 344, Body Weight Changes: decrease + Food Consumption: decrease + Hematology: Ret decrease, Plt decrease + Blood Chemistry: Bile acid increase, …): < 300 mg/kg-day
NOEL (Rattus norvegicus [2]; chronic, duration: 14 weeks, diet, M/F, Fischer 344, Body Weight Changes: decrease + Food Consumption: decrease + Hematology: Ret decrease, Plt decrease + Blood Chemistry: Bile acid increase, …): < 320 mg/kg-day

CO[Si](C)(C)OC [Dimethoxydimethylsilane]
NOAEL (Rattus norvegicus [2]; short-term, duration: 29 days, gavage, M/F, Sprague-Dawley, Deaths + Clinical Observation: Soiling of chin and urogenital area Soiling of muzzle + Absolute Organ Weight: Adrenal decrease, Liver …): 250 mg/kg-day

Oc1cccc(Br)c1 [Phenol, 3-bromo-]
NOEL (Rattus norvegicus [2]; short-term, duration: 28 days, gavage, M/F, Sprague-Dawley, Clinical Observation: Salivation + Body Weight Changes: Weight gain decrease + Water Consumption: increase + Urinalysis: Volume increase + …): 300 mg/kg-day

CCCCCCCCCCCCc1ccc(S(=O)(=O)[O-])cc1.COc1ccc(C[N+](C)(C)c2ccccc2)cc1
NOEL (Rattus norvegicus [2]; short-term, duration: 28 days, gavage, M/F, Clinical Observation: Salivation + Urinalysis: Occult blood + Blood Chemistry: GPT increase, T-CHO increase, K increase, GOT increase, TG …): 25 mg/kg-day

C=Cc1ccc(S(=O)(=O)[O-])cc1.[Na+] [Sodium 4-vinylbenzenesulfonate]
LOEL (Rattus norvegicus [2]; [9]): 1000 mg/kg-day
NOEL (Rattus norvegicus [2]; [9]): 300 mg/kg-day
LOEL (Rattus norvegicus [2]; [10]): 300 mg/kg-day
NOEL (Rattus norvegicus [2]; [10]): 100 mg/kg-day

COCc1ccc(COC)cc1 [1,4-Bis(methoxymethyl)benzene]
NOAEL (Rattus norvegicus [2]; [11]): 50 mg/kg-day
NOEL (Rattus norvegicus [2]; [11]): 50 mg/kg-day
